Experimental findings from patent US8198279B2, “Pyrido[2,3-b]pyrazin-8-substituted compounds and their use” (Institute of Cancer Research: Royal Cancer Hospital (The), priority 2007, dated 2012) are described below.

“And” between values parts separate entries of the source, which are not always exact repeats. Identical values can stand only once.

Test [1] relates to WM266.4 melanoma cells. Kind of test: SRB Cell Proliferation Assay (SRB GI50). Format: cell-based. To be noted: Homo sapiens, WM 266-4, 144 h, 6 days growth. How it is done: Biological Methods —SRB Cell Proliferation Assay (SRB GI50)
Cultures of WM266.4 melanoma cells are routinely cultured in DMEM/10% foetal bovine serum, at 37° C., in 5% CO2 water saturated atmosphere. Cultures are maintained in exponential growth phase by sub-culturing before having become confluent (3-5 day intervals). Single cell suspensions are prepared by harvesting an 80 cm^2 tissue culture flask with 5 mL commercial trypsin EDTA. After 5 minutes, the detached cells are mixed with 5 mL fully complemented culture medium and centrifugally pelleted (1000 rpm for 7 minutes). After aspirating the supernatant, the cell pellet is re-suspended in 10 mL fresh medium and the cells fully disaggregated by drawing the whole volume up/down 5 times through a 19-gauge needle. The concentration of the cells is determined using a haemocytometer (1/10 dilution). A suitable volume to give at least a 2-fold excess for the number of tests being conducted, typically 100-200 mL, is prepared by diluting the cell suspension to 10,000/mL, and 100 μL/well dispensed into 96 well plates using a programmable 8-channel peristaltic pump, giving 1000 cells/well, leaving column 12 blank. The plates are returned to the incubator for 24 hours to allow the cells to re-attach.
The compounds being tested are prepared at 20 mM in dimethylsulphoxide. Aliquots (200 μL) are diluted into 20 mL culture medium giving 200 μM, and 10 serial dilutions of 3× performed by transferring 5 mL to 10 mL. Aliquots (100 μL) of each dilution are added to the wells, using an 8-channel pipettor, thus performing a final further 2× dilution, and giving doses ranging from 100 μM to 0.005 μM. Column 11 receives plain culture medium only. Each compound is tested in quadruplicate, each replicate being the average of four wells, and two plates per compound.
After a further 6 days growth, the plates are emptied, and the cells are fixed in 10% trichloroacteic acid for 10 minutes on ice. After thorough rinsing in running tap water, the plates are dried, and stained by adding 50 μL of a solution of 0.1% sulphorhodamine-B in 1% acetic acid, for 10 minutes at room temperature. The stain is poured out and the plates thoroughly rinsed under a stream of 1% acetic acid, thus removing unbound stain, and dried. The bound stain is taken into solution by addition of 150 μL Tris buffer pH 8, followed by 10 minutes on a plate-shaker (approximately 500 rpm). The absorbance at 540 nm in each well (being proportional to the number of cells present) is determined using a plate reader.
After averaging the results in rows A-D and E-H, the blank value (row 12) is subtracted, and results expressed as percentage of the untreated value (row 11). […] The GI50 generated by this procedure is the concentration of the drug that produces a percentage control A540 midway between the saturation, and zero-effect plateaus.

Test [2] has as its target T1, B-RAF (Homo sapiens, UniProt P15056, V600E).
T1 construct: made in house
Kind of test: DELFIA Kinase Assay. The settings on record: 100 μM ATP, GST-MEK substrate. Format: biochemical. How it is done:
Biological Methods—DELFIA Kinase Assay
Compounds were assessed by a kinase assay performed according to the following protocol.
DKB1 (DKB with B-RAF and MEK Protein):
Combine 4950 μL of DKB and 50 μL of 2.5 mg/ml GST-MEK stock (to give […] of MEK per 40 μL). Then add 22.5 μL of B-RAF to give ˜0.2 μL of B-RAF per 40 μL.
100 mM stock, dilute to 500 μM to give 100 μM final concentration in assay.
• 1. Preblock wells with 5% milk in TBS for 1 hour. • 2. Wash wells with 3× with 200 μL TBS. • 3. Plate out 40 μL of DKB1 for all inhibitors (test compounds), DMSO control, and optionally other control compounds. • 4. Plate out 40 μL of DKB2 for BO and EV wells. • 5. Add inhibitors (test compounds) at 0.5 μL per well according to desired plate layout. • 6. Add 0.5 μL DMSO to vehicle control wells. • 7. Add 2 μL of B-RAF to BO and EV wells. • 8. Pre-incubate with inhibitors (test compounds) for 10 minutes at room temperature with shaking. • 9. Add 10 μL of 500 μM ATP stock, in DKB, to give 100 μM assay concentration. • 10. Seal plates with TopSeal and incubate at room temperature with shaking for 45 minutes. • 11. Wash plates 3× with 200 μL 0.1% Tween20/Water to terminate reaction. • 12. Add 50 μL per well of antibody mix and incubate for 1 hour at room temperature with shaking. • 13. Wash plates 3× with 200 μL 0.1% Tween20/Water. • 14. Add 100 μL DELFIA enhancement solution per well, cover in foil, and incubate at room temperature for 30 minutes with shaking. • 15. Read on Victor using Europium protocol.
Values for the blank (Empty Vector) are subtracted from all values. The DMSO controls are set as 100% activity and assay points (the response) are calculated as a percentage of the DMSO control. Data are plotted using Graphpad Prism software and a non-linear regression line is calculated using a variable slope sigmoidal dose-response equation (Y=Bottom+(Top−Bottom)/(1+10^((LogEC50−X)*HillSlope)) where X is the logarithm of concentration. Y is the response). The IC50 generated by this procedure is the concentration of the drug that produces a percentage control fluorescence value midway between the saturation, and zero-effect plateaus. Three independent assays are usually performed and the mean IC50 is reported.

T1 sequence (P15056 whole entry V600E): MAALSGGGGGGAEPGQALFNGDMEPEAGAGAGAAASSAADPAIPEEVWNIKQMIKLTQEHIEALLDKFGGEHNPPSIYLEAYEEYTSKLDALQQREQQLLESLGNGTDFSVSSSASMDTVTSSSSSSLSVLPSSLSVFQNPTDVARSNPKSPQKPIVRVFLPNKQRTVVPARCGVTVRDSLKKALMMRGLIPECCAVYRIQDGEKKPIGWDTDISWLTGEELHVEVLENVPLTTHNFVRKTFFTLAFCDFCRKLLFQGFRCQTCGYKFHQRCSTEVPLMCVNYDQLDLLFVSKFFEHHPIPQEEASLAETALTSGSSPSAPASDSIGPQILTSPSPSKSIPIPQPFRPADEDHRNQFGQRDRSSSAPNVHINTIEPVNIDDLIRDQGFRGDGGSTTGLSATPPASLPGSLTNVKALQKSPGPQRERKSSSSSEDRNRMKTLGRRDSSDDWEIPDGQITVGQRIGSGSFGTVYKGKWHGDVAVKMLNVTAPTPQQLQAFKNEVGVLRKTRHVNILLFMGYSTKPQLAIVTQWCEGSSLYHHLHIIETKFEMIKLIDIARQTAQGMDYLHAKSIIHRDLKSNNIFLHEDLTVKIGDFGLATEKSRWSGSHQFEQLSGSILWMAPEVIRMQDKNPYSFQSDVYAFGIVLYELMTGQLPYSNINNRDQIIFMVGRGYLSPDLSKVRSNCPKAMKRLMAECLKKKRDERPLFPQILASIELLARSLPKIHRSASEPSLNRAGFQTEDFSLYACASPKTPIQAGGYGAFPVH

What is called GI50 is the concentration giving 50% growth inhibition. Low values mean more potent growth inhibition, high ones less potent growth inhibition. The IC50 is the concentration at which inhibition is half-maximal. `O=C(Nc1ccc(Cl)c(C(F)(F)F)c1)Nc1ccc(Oc2ccnc3ncc(=O)[nH]c23)c2ccccc12` [AA-037, 1-(4-chloro-3-(trifluoromethyl)phenyl)-3-(4-(1-oxo-1,2-dihydropyrido[2,3-b]pyrazin-8-yloxy)naphthalen-1-yl)urea] showed a GI50 in test [1] of less than 10 µM. Further, the IC50 in test [2] was < 1000 nM and 100 to 1000 nM. Regarding `CN(C)c1cnc2c(Oc3ccc(NC(=O)Nc4cc(C(F)(F)F)ccc4F)c(F)c3)ccnc2n1` [AA-068, 1-(4-(3-(dimethylamino)pyrido[3,2-b]pyrazin-8-yloxy)-2-fluorophenyl)-3-(2-fluoro-5-(trifluoromethyl)phenyl)urea], in test [1], the GI50 was in the range of 1 to 10 µM. Further, the half-maximal inhibitory concentration (IC50) in test [2] was in the range of 100 to 1000 nM. On the same counts, the results for `O=C(Nc1cccc(Oc2ccnc3[nH]c(=O)cnc23)c1)Nc1cc(C(F)(F)F)ccc1F` [AA-007, 1-(2-fluoro-5-(trifluoromethyl)phenyl)-3-(3-(3-oxo-3,4-dihydropyrido[2,3-b]pyrazin-8-yloxy)phenyl)urea] are 1 to 10 µM and less than 100 nM.

Molecule `CNc1cnc2c(Oc3ccc(NC(=O)Nc4cc(C(F)(F)F)ccc4F)c(F)c3)ccnc2n1` [AA-055, 1-(2-fluoro-4-(3-(methylamino)pyrido[3,2-b]pyrazin-8-yloxy)phenyl)-3-(2-fluoro-5-(trifluoromethyl)phenyl)urea] registered a GI50 in test [1] of 1 to 10 µM. In addition, in test [2], the IC50 was < 1000 nM and 100 to 1000 nM. Take `Cc1nc2nccc(Oc3ccc(NC(=O)Nc4cc(C(F)(F)F)ccc4F)c(F)c3)c2[nH]c1=O` [AA-049, 1-(2-fluoro-4-(3-methyl-2-oxo-1,2-dihydropyrido[3,2-b]pyrazin-8-yloxy)phenyl)-3-(2-fluoro-5-(trifluoromethyl)phenyl)urea]: the IC50 in test [2] was < 1000 nM and 100 to 1000 nM. `CSc1cc(Oc2ccnc3[nH]c(=O)cnc23)ccc1NC(=O)Nc1cc(C(F)(F)F)ccc1F` [AA-024, 1-(2-fluoro-5-(trifluoromethyl)phenyl)-3-(2-(methylthio)-4-(3-oxo-3,4-dihydropyrido[3,2-b]pyrazin-8-yloxy)phenyl)urea] had an IC50 in test [2] of less than 100 nM.

In test [2], `CSc1cc(Oc2ccnc3[nH]c(=O)c(=O)[nH]c23)ccc1NC(=O)Nc1cc(C(F)(F)F)ccc1F` [AA-052, 1-(4-(2,3-dioxo-1,2,3,4-tetrahydropyrido[2,3-b]pyrazin-8-yloxy)-2-(methylthio)phenyl)-3-(2-fluoro-5-(trifluoromethyl)phenyl)urea] showed an IC50 of less than 100 nM.

Regarding `CN1CCN(c2cnc3c(Oc4ccc(NC(=O)Nc5cc(C(C)(C)C)nn5-c5ccccc5)c(F)c4)ccnc3n2)CC1` [AA-053, 1-(3-Tert-butyl-1-phenyl-1H-pyrazol-5-yl)-3-(2-fluoro-4-(3-(4-methylpiperazin-1-yl)pyrido[2,3-b]pyrazin-8-yloxy)phenyl)urea], the IC50 in test [2] was < 1000 nM and 100 to 1000 nM. On the same count and under the same terms, the value for `Cc1nc2c(Oc3ccc(NC(=O)Nc4cc(C(F)(F)F)ccc4F)c(F)c3)ccnc2[nH]c1=O` [AA-028, 1-(2-Fluoro-4-(2-methyl-3-oxo-3,4-dihydropyrido[2,3-b]pyrazin-8-yloxy)phenyl)-3-(2-fluoro-5-(trifluoromethyl)phenyl)urea] was less than 100 nM; that for `O=C(Nc1ccc(Sc2ccnc3[nH]c(=O)cnc23)cc1)Nc1cc(C(F)(F)F)ccc1F` [AA-027, 1-(2-Fluoro-5-(trifluoromethyl)phenyl)-3-(4-(3-oxo-3,4-dihydropyrido[2,3-b]pyrazin-8-ylthio)phenyl)urea] was less than 100 nM; that for `Cc1nc2c(Oc3ccc(NC(=O)Nc4cc(C(F)(F)F)ccc4F)c4ccccc34)ccnc2[nH]c1=O` [AA-014, 1-(2-fluoro-5-(trifluoromethyl)phenyl)-3-(4-(2-methyl-3-oxo-3,4-dihydropyrido[2,3-b]pyrazin-8-yloxy)naphthalen-1-yl)urea] was less than 100 nM. Consider `O=C(Nc1cccc(Oc2ccnc3ncc(=O)[nH]c23)c1)c1cccc(OC(F)(F)F)c1` [AA-030, N-(3-(2-oxo-1,2-dihydropyrido[2,3-b]pyrazin-8-yloxy)phenyl)-3-(trifluoromethoxy)benzamide], for which the IC50 in test [2] was < 1000 nM and 100 to 1000 nM.

As for `O=C(Nc1cc(C(F)(F)F)ccc1F)Nc1ccc(Oc2ccnc3[nH]c(=O)cnc23)c2ccccc12` [AA-012, 1-(2-fluoro-5-(trifluoromethyl)phenyl)-3-(4-(3-oxo-3,4-dihydropyrido[2,3-b]pyrazin-8-yloxy)naphthalen-1-yl)urea], in test [1], the 50% growth inhibitory concentration (GI50) was 1 to 10 µM. In addition, the IC50 in test [2] was < 1000 nM and 100 to 1000 nM. For the molecule `Cc1ccc(-n2nc(C(C)(C)C)cc2NC(=O)Nc2ccc(Oc3ccnc4[nH]c(=O)c(C)nc34)c3ccccc23)cc1` [AA-011, 1-(3-tert-butyl-1-p-tolyl-1H-pyrazol-5-yl)-3-(4-(2-methyl-3-oxo-3,4-dihydropyrido[2,3-b]pyrazin-8-yloxy)naphthalen-1-yl)urea], the IC50 in test [2] was less than 100 nM.
